Source: patent publication US6972287B1, “Method of inhibiting amyloid protein aggregation and imaging amyloid deposits” (Pfizer Inc., priority 1999, dated 2005)
Where “and” joins values, the source holds several entries; their conditions need not be identical. Equal values may be shown once.

Legend:
Format in all cases: biochemical
[1] = target: T1, Aβ(1-40) (Homo sapiens, UniProt P05067); experiment: BASSR (Beta-Amyloid Self-Seeding Radioassay), inhibitors of self-seeded amyloid fibril growth
T1 construct: […]; purchased Bachem, Torrance, Calif
T1 sequence (P05067 672-711 limits assumed): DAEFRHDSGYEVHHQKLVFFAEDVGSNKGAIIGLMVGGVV
Protocol: BASSR (Beta-Amyloid Self-Seeding Radioassay)
(§1) An assay for inhibitors of self-seeded amyloid fibril growth
Assay Buffer—50 mM sodium phosphate, pH 7.5, 100 mM NaCl, 0.02% NaN3, 1 M urea (filter and store at 4° C.).
(§2) Typically, the solution should be stored until no lag phase is seen in the assay.
^125I-labeled Aβ(1-40)—150K-350K cpm/μL in 100% acetonitrile—0.1% trifluoroacetic acid (TFA)—1% β-mercaptoethanol (aliquots stored at −20° C.). ^125I-labeled Aβ(1-40) can be made in accordance with the procedure set forth by H. LeVine, III in Neurobiol. Aging, 16, 755, (1995), which is hereby incorporated by reference, or this reagent may be purchased from Amersham, Arlington Heights, Ill.
The following are the amounts of the components of the reaction mixture sufficient for 50 assay wells:
• 1) Prepare reaction mixture above by mixing components and storing on ice. • 2) Pipet 14.5 μL of reaction mixture into each of 50 wells on a polypropylene U-bottom 96-well microtiter plate on ice. (Costar 3794). • 3) Add 1.7 μL of diluted compound to be tested to each well in a column of eight, including solvent control. Serial 3-fold dilutions from 1 mM (100 μM final) in assay buffer−urea=7 dilutions+zero. Each 96-well plate can therefore accommodate 11 samples+1 Congo Red control (0.039-5 μM final in 2-fold steps). • 4) Seal the plate with aluminum film (Beckman 538619) and incubate for 10 minutes on ice. • 5) Raise the temperature to 37° C. and incubate for 3 to 5 hours (depending on the lot of the peptide). • 6) Remove the aluminum film and add 200 μL/well of ice cold assay buffer with urea, collecting the radiolabeled fibrils by vacuum filtration through 0.2 μm pore size GVWP filters in 96-well plates (Millipore MAGV N22, Bedford, Mass.). Determine the radioactivity of the filters using standard methods well-known to those skilled in the art. BASST (Beta-Amyloid Self-Seeding, Thioflavin T)

[2] = target: T1, Aβ(1-40); experiment: BASST (Beta-Amyloid Self-Seeding, Thioflavin T), inhibitors of self-seeded amyloid fibril growth; details: read-out: BASST (IC50 = μM)
Protocol: as §1
Assay Buffer—50 mM sodium phosphate, pH 7.5, 100 mM NaCl, 0.02% NaN3, 1 M urea (filter and store at 4° C.)
as §2
The following are the amounts of the components of the reaction mixture that result in each of the 50 assay wells:
• 1) Prepare the reaction mix above by mixing the components and storing on ice. • 2) Pipet 14.5 μL of reaction mixture into each of 50 wells of a polystyrene U-bottom 96-well microtiter plate (Corning 25881-96) on ice. • 3) Add 1.7 μL of diluted compound to be tested to each well in a column of eight, including solvent control. Serial 3-fold dilutions from 1 mM (100 μM final) in assay buffer−urea=7 dilutions+zero. Each 96-well plate can therefore accommodate 11 samples+1 Congo Red control (0.039-5 μM final in 2-fold steps). • 4) Seal the plate with aluminum film and incubate for 10 minutes on ice. • 5) Raise the temperature to 37° C. and incubate for 3 to 5 hours (depends on the lot of the peptide). • 6) Remove the aluminum film and add 250 μL/well of 5 μM thioflavin T (ThT) [T-3516, Sigma-Aldrich] in 50 mM glycine-NaOH, pH 8.5. Read fluorescence on a plate reader (ex=440 nm/20 nm; em=485 nm/20 nm) within 5 minutes. BAPA (Beta-Amyloid Peptide Aggregation)

[3] = target: T2, Aβ (1-40) peptide (Homo sapiens, UniProt P05067); experiment: BAPA (Beta-Amyloid Peptide Aggregation, pH 6.0, filtration); details: Aβ (1-40) 33 μM, pH 6.0, 2 to 4 hours at room temperature; replicate values; letter = synthetic lot
T2 construct: 10 μL 0.5 mg/mL Aβ (1-40) peptide in 20% HFIP
T2 sequence (P05067 672-711 limits assumed): as above
Protocol: Each 96-well plate can therefore accommodate 11 samples+1 Congo Red control (0.039-5 μM final in 2-fold steps). • 4) Seal the plate with aluminum film and incubate for 10 minutes on ice. • 5) Raise the temperature to 37° C. and incubate for 3 to 5 hours (depends on the lot of the peptide). • 6) Remove the aluminum film and add 250 μL/well of 5 μM thioflavin T (ThT) [T-3516, Sigma-Aldrich] in 50 mM glycine-NaOH, pH 8.5. […] The purpose of this assays is to provide a higher volume method of assaying the amount of beta amyloid aggregation using an endpoint assay based on filtration. In this assay, hexafluoroisopropanol (HFIP) is used to break down the initial amyloid peptide to a monomer state and use a concentration of 33 μM which is high enough so that aggregation will occur at pH 6.0 in several hours. Methods: […] Then, we incubate for 2 to 4 hours at room temperature. […] We wash the filter plate with 100 μL of the same phosphate buffer. Aggregation was detected on a Microbeta counter after impregnating the filters with Meltilex (1450-441) and is corrected for background.

[4] = target: T3, Aβ (1-42) (Homo sapiens, UniProt P05067); experiment: BATYM assay (Aβ (1-42) aggregation, Thioflavin T fluorescence); details: Aβ 1-42 final concentration 100 μM, 37° C., 1 day, letter = synthetic lot
T3 construct: Required Aβ (1-42) (California Peptide) was dried from its hexafluoroisopropanol (HFIP) stock solution; purchased California Peptide
T3 sequence (P05067 672-713 limits assumed): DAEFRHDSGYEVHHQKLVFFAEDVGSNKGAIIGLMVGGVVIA
Protocol: Required Aβ (1-42) (California Peptide) was dried from its hexafluoroisopropanol (HFIP) stock solution. The Aβ (1-42) was dissolved in dimethylsulfoxide (DMSO) and then mixed with phosphate buffered saline (PBS) (pH 7.4). The mixed Aβ (1-42) solution was filtered with a 0.2 μm Omnipore membrane syringe filter Millipore, Bedford, Mass.). The compound to be tested in DMSO (50 times concentrate) was put into each well (0.5 μL/well) of a 96-well plate. The Aβ (1-42) solution was added into each well (24.5 μL/well). The plate was centrifuged at 1,000 g for 5 minutes and incubated at 37° C. for 1 day (Aβ 1-42; final concentration 100 μM).
After incubation Thioflavin T (ThT) (30 μM) solution in glycine-NaOH buffer (pH 8.5, 50 mM) was added into each well (250 μL/well), fluorescence was measured (ex=440/20 nm, em=485/20 nm) using a fluorescence plate reader. The inhibitory activity was calculated as the reduction of fluorescence with the following formula: Inhibition (%)={(F(Aβ)−F(Aβ+compound)}/{F(Aβ)−[…]}×100
The IC50s were calculated by a curve fitting program using the following equation. The data were obtained from two different experiments in triplicate.
x=Concentration of tested compound (M),

[5] = 30 μM soluble Aβ(1-40) + 125I-labeled Aβ(1-40), 37° C., 3 to 5 hours, replicate values, letter = synthetic lot, ppt = precipitate, V-shaped = inhibition followed by precipitation
[6] = 30 μM soluble Aβ(1-40), 37° C., 3 to 5 hours, thioflavin T fluorescence, replicate values, letter = synthetic lot

| Molecule | IC50 [1] [µM] | IC50 [2] | IC50 [3] | IC50 [4] [µM] | IC50 [1, 5] | IC50 [2, 6] [µM] |
| --- | --- | --- | --- | --- | --- | --- |
| 2-{4-[2-(3,4-Dichloro-phenyl)-ethyl]-phenylamino}-benzoate-2-hydroxy-1,1-bis hydroxymethyl-ethyl-ammonium [Example 120] | > 100 | 3 µM | > 60 µM |  |  |  |
| O=C(O)c1cc([N+](=O)[O-])c(-n2ccnc2)cc1Nc1ccc(CCCc2ccc(Cl)c(Cl)c2)cc1 [Example 8] |  |  |  | 7.17 | 15 µM (3×) and 18 µM |  |
| O=C(O)c1ccccc1Nc1ccc(CCCc2ccc(N3CCCCC3)cc2)cc1 [Example 47, 2-{4-[3-(4-Piperidin-1-ylphenyl)propyl]phenylamino}benzoic acid] |  |  |  | 38.2 | > 100 µM | 2 |
| CCCNc1ccc(CCCc2ccc(Nc3ccccc3C(=O)O)cc2)cc1 [Example 51, 2-{4-[3-(4-Propylaminophenyl)propyl]phenylamino}benzoic acid] |  |  |  | 39.1 | 85 µM | 0.8 |
| CCCNc1cccc(CCCc2ccc(Nc3ccccc3C(=O)O)cc2)c1 [Example 52, 2-{4-[3-(3-Propylaminophenyl)propyl]phenylamino}benzoic acid] |  |  |  | 36.5 | 75 µM | 0.5 |
| Cc1cc(-c2cc(Cl)cc(Cl)c2)ccc1Nc1ccccc1C(=O)O [Example 83, 2-(3′,5′-Dichloro-3-methyl-biphenyl-4-ylamino)-benzoic acid] |  |  | 9 µM and 47 µM and 29 µM |  | > 100 µM | > 100 |
| Cc1cc(-c2cc(Br)cc(Br)c2)ccc1Nc1ccccc1C(=O)O [Example 84, 2-(3′,5′-Dibromo-3-methyl-biphenyl-4-ylamino)-benzoic acid] |  |  | 5 µM and 21 µM |  | > 100 µM | > 100 |
| Cc1cc(-c2ccc3c(c2)OCO3)ccc1Nc1ccccc1C(=O)O [Example 85, 2-(4-1,3-Benzodioxol-5-yl-2-methyl-phenylamino)-benzoic acid] |  |  | 8 µM and 77 µM and 45 µM |  | > 100 µM | 18 |
| O=C(O)c1ccccc1Nc1ccc(-c2ccc(Cl)cc2Cl)c(Cl)c1 [Example 86, 2-(2,2′,4′-Trichloro-biphenyl-4-ylamino)-benzoic acid] |  |  | > 10 µM and 89 µM and 37 µM |  | 40 µM | 18 |
| O=C(O)c1ccccc1Nc1ccc(-c2ccc(F)c(F)c2)c(Cl)c1 [Example 87, 2-(2-Chloro-3′,4′-difluoro-biphenyl-4-ylamino)-benzoic acid] |  |  | > 10 µM and 15 µM and 32 µM |  | > 100 µM | 50 |
| O=C(O)c1ccccc1Nc1ccc(-c2cccc(Br)c2)c(Cl)c1 [Example 88, 2-(3′-Bromo-2-chloro-biphenyl-4-ylamino)-benzoic acid] |  |  | > 10 µM and 37 µM and 27 µM |  | > 100 µM | 10 |
| O=C(O)c1cc(C(F)(F)F)ccc1Nc1ccc(CCc2ccc(Cl)c(Cl)c2)cc1 [Example 143, 2-{4-[2-(3,4-Dichlorophenyl)-ethyl]-phenylamino}-5-trifuoromethyl-benzoic acid] | > 100 | 40 µM and 30 µM |  | > 100 |  |  |
| CN(c1ccc(CCc2ccc(Cl)c(Cl)c2)cc1)c1ccccc1C(=O)O [Example 148, 2-({4-[2-(3,4-Dichloro-phenyl)-ethyl]-phenyl}-methyl-amino)-benzoic acid] |  |  |  | > 100 | > 100 µM |  |
| O=C(O)c1ccccc1Nc1cccc(CCc2ccc(Cl)cc2)c1 [Example 154, 2-{3-[2-(4-Chlorophenyl)ethyl]phenylamino}-benzoic acid] |  |  |  | 70.8 | > 100 µM |  |
| O=C(O)c1ccccc1Nc1cccc(CCCc2ccc(Cl)c(Cl)c2)c1 [Example 155, 2-{3-[3-(3,4-Dichlorophenyl)propyl]phenylamino}-benzoic acid] |  |  |  | 44.6 | > 100 µM | 3 |
| CCN(CC)c1ccc(CCCc2cccc(Nc3ccccc3C(=O)O)c2)cc1 [Example 156, 2-{3-[3-(4-Diethylaminophenyl)propyl]phenylamino}-benzoic acid] |  |  |  | 27.8 |  |  |
| CCCN(CCC)c1ccc(CCCc2cccc(Nc3ccccc3C(=O)O)c2)cc1 [Example 157, 2-{3-[3-(4-Di-n-propylaminophenyl)propyl]phenylamino}-benzoic acid] |  |  |  | 25.9 |  |  |
